From PMC10150365 (Journal of Medicinal Chemistry, 2023)
In brackets after ≈: the same amount, converted by molar mass. Several values for one entry are separate records, joined by “and”; a condition that tells them apart may be missing. Equal values may be shown once. Read-outs that look alike come from different tables or passages of the source. Marks after values point to notes of the source that are not given here.

How the values were obtained:
[1] = Rat blood PK (Sprague-Dawley); type: in vivo; conditions: SD rats
[2] = Free fraction in CellTiter-Blue assay medium (dialysis); type: in vitro ADME; conditions: dialysis from CellTiter-Blue assay medium; 90% CI
[3] = Plasma protein binding and blood-to-plasma ratio; type: in vitro ADME, mouse
[4] = Plasma protein binding and blood-to-plasma ratio; type: in vitro ADME, rat
Plasma stability = type: in vitro ADME; conditions: pooled plasma, read-out: Compound remaining (% of 0 min); for remaining at 15 min, 1 µM: 37 °C
Protocol: AUCu0-24h was assumed from the mouse efficacy study. […] F=oral bioavailability and
Compd Species Compound remaining (% of 0 min)

in vitro [5] = conditions: human; for recovery: Caco-2, pH 7.4, Recovery
[6] = Plasma protein binding and blood-to-plasma ratio; conditions: for fub: BALB/c mouse blood, fub = fup/B:P; for Plasma, fup: BALB/c mouse, 90% CI
SK-OV-3 = experiment: cells; type: cell-based, human; conditions: for GI50: Homo sapiens
in vitro [7] = type: in vitro ADME, mouse
in vitro [8] = type: in vitro ADME; conditions: male, Sprague Dawley, rat, microsomes, pH 7.4; n = 1, fraction unbound assumed 1; read-out: Microsome Clint, rat (RLM)
in vitro [9] = type: in vitro ADME; conditions: both sexes, human, microsomes, pH 7.4; n = 1, fraction unbound assumed 1; read-out: Microsome Clint, human (HLM)
in vitro [10] = type: in vitro ADME; conditions: mouse
[11] = iv PK in CF1 wild-type and P-gp-knockout mice; type: in vivo, mouse; conditions: mouse, in vivo, iv, 5 mg/kg, read-out: Vss
P-gp = experiment: iv PK in CF1 wild-type and P-gp-knockout mice; type: in vivo, mouse; conditions: for Cltb: 5 mg/kg iv, 90% CI, 5 mg/kg
[12] = tested on: P-gp-mediated efflux (CH1^doxR/CH1^WT); type: cell-based, human; conditions: ratio of geometric mean GI50 values, CellTiter-Blue
physchem [13] = conditions: pH 7.4
physchem [14] = conditions: pH 7.4; remark: listed apart in the source
CH1^WT = experiment: CH1 WT growth inhibition, CellTiter-Blue; type: cell-based; conditions: Homo sapiens, CH1WT
CH1^doxR = experiment: CH1doxR growth inhibition, CellTiter-Blue; type: cell-based, human
OVCAR5 = conditions: OVCAR5, 96 h
PA1 = conditions: PA1, 96 h
RMG-1 = conditions: RMG-1, 96 h
[15] = tested on: human ovarian cancer cell lines; conditions: carboplatin N = 4 cell lines; 1 N = 9 cell lines
[16] = female, BALB/c, mouse, in vivo, po, 5 mg/kg

Cc1ccc(NC(=O)c2ccc3c(c2)OCCO3)cc1NC(=O)c1ccc2nc(OCCN3CCCC3)ccc2c1 [Compound 1]
Fmax [1]: 71% | iv Cltb ([1]; iv): 1.2 L/h/kg | Free Cav^0–24h ([1]; po (Table S12)): 0.00072 µM | Vdu ([1]; Vss/fub): 230 L/kg | Cmax ([1]; female, Sprague-Dawley (CD), rat, whole blood, 5 mg/kg, po): 0.063 µM | bioavailability at 24 h ([1]; female, Sprague-Dawley (CD), rat, whole blood, po, 5 mg/kg): 11% | Vd ([1]; female, Sprague-Dawley (CD), rat, whole blood, iv, read-out: Vss): 4.4 L/kg | Tmax ([1]; female, Sprague-Dawley, rat, whole blood, 5 mg/kg, po): > 6 h | half-life ([1]; female, Sprague-Dawley, rat, whole blood, 5 mg/kg, terminal, from iv dose): 3.2 h | AUC ([1]; female, Sprague-Dawley, rat, whole blood, po, 5 mg/kg, po, t = 24 h, read-out: po AUC^0–t): 840 nM·h | Assay medium, fua [2]: 0.47 (0.54-0.42) | fub ([3]; athymic mouse blood, fub = fup/B:P): 0.015 | Plasma, fup ([3]; athymic mouse, 90% CI): 0.025 (0.031-0.020) | fub ([4]; Sprague Dawley rat blood, fub = fup/B:P): 0.019 | Plasma, fup ([4]; Sprague Dawley rat, 90% CI): 0.029 (0.036-0.023) | remaining at 15 min, 1 µM (Plasma stability; human plasma): 104% | remaining at 30 min, 1 µM (Plasma stability; human plasma): 96.4% | remaining at 60 min, 1 µM (Plasma stability; human plasma): 97% | remaining at 120 min, 1 µM (Plasma stability; human plasma): 95.1% | remaining at 15 min, 1 µM (Plasma stability; mouse plasma): 97.8% | remaining at 30 min, 1 µM (Plasma stability; mouse plasma): 91.3% | remaining at 60 min, 1 µM (Plasma stability; mouse plasma): 93.3% | remaining at 120 min, 1 µM (Plasma stability; mouse plasma): 85.9% | A2B (Caco-2; geometric mean): 2.4 nm/s | B2A (Caco-2; geometric mean): 39 nm/s | A2B + LY335979 (Caco-2; individual experiments): 2.3 nm/s | B2A (Caco-2; individual experiments): 23 nm/s and 46 nm/s and 55 nm/s | B2A + LY335979 (Caco-2; individual experiments): 15 nm/s | Papp A→B at 2 h, 10 µM (in vitro [5]; Caco-2, pH 7.4): 24 nm/s | recovery (in vitro [5]; A2B + LY335979, geometric mean row): 50% | recovery (in vitro [5]; A2B + LY335979, individual experiments): 50% | recovery (in vitro [5]; A2B, geometric mean row): 90% | recovery (in vitro [5]; A2B, individual experiments): 90% | recovery (in vitro [5]; B2A + LY335979, geometric mean row): 100% | recovery (in vitro [5]; B2A + LY335979, individual experiments): 100% | recovery (in vitro [5]; B2A, geometric mean row): 70% | recovery (in vitro [5]; B2A, individual experiments): 70% | fub [6]: 0.0083 | Plasma, fup [6]: 0.010

Cc1ccc(NC(=O)c2ccc3c(c2)OCCO3)cc1NC(=O)c1ccc2nc(CN3CCN(C(C)C)CC3)ccc2c1 [Compound 16, N-(5-(2,3-Dihydrobenzo[b][1,4]dioxine-6-carboxamido)-2-methylphenyl)-2-((4-isopropylpiperazin-1-yl)methyl)quinoline-6-carboxamide]
GI50 (SK-OV-3; SK-OV-3, 96 h, read-out: SK-OV-3 pGI50 ± SEM (n) (converted)): 8.71 nM | GI50 (SK-OV-3; SK-OV-3, 96 h, CellTiter-Blue, geometric mean, read-out: SK-OV-3 GI50): 8.8 nM | microsomal CLint (in vitro [7]; male, CD1, mouse, microsomes, pH 7.4, n = 1, fraction unbound assumed 1, read-out: Microsome Clint, mouse (MLM)): 10 µL/min/mg | Pred. in vivo CLu from MLM (in vitro [7]; scaling factors, well-stirred model): 2.34 L/h/kg | microsomal CLint at 0.75 h, 1 µM (in vitro [8]): 7 µL/min/mg | microsomal CLint at 0.75 h, 1 µM (in vitro [9]): 43 µL/min/mg | hepatocyte CLint at 1 h, 1 µM (in vitro [10]; hepatocytes, n = 1, read-out: Mouse Heps CLint): 20 µL/min/1e6 cells | Pred. in vivo CLu from Heps (in vitro [10]; fraction unbound in assay assumed 0.4 or 0.2): 460 ^h mL/min/kg | Vd ([11]; CF1 mdr1a P-gp deficient (CF1-Abcb1amds), CF1^PGP-KO mice): 3.6 L/kg | Vd ([11]; CF1 wild type, CF1^WT mice): 3.2 L/kg | Extraction Ratio (% of HBF) (P-gp; CF1^PGP-KO mice): 27 (21-34) % | Cltb (P-gp; CF1^PGP-KO mice): 24 mL/min/kg and 24 (31-19) mL/min/kg | Extraction Ratio (% of HBF) (P-gp; CF1^WT mice): 39 (46-33) % | Cltb (P-gp; CF1^WT mice): 35 mL/min/kg and 35 (42-30) mL/min/kg | CH1^doxR/CH1^WT (fold resistance) [12]: 8.4 | chromatographic logD (physchem [13]): 1.9 | solubility kinetic at 2 h, 100 µM (physchem [14]): 80 µM (≈ 46.4 µg/mL) | Fmax (Mouse blood PK (BALB/c); BALB/c mice): 62% | iv Cltb (Mouse blood PK (BALB/c); BALB/c mice, iv 5 mg/kg (18: 1 mg/kg), 90% CI): 34 (36–32) mL/min/kg | Free Cav^0–24h (Mouse blood PK (BALB/c); BALB/c mice, po, AUC^inf/24*fub): 0.00066 µM | CLu (Mouse blood PK (BALB/c); BALB/c mice, CLtb/fub): 66 L/h/kg | Vdu (Mouse blood PK (BALB/c); BALB/c mice, Vss/fub): 80 L/kg | extraction ratio (Mouse blood PK (BALB/c); BALB/c mice, hepatic blood flow 90 mL/min/kg): 38% | Vd (Mouse blood PK (BALB/c); female, BALB/c, mouse, in vivo, iv): 2.6 L/kg | half-life at 24 h (Mouse blood PK (BALB/c); female, BALB/c, mouse, in vivo, iv, 5 mg/kg): 1.2 h | Cmax (Mouse blood PK (BALB/c); [16]): 0.13 µM | Tmax at 24 h (Mouse blood PK (BALB/c); [16]): 1.7 h | bioavailability at 24 h (Mouse blood PK (BALB/c); [16]): 11% | AUC (Mouse blood PK (BALB/c); female, BALB/c, mouse, in vivo, po, 5 mg/kg, AUCu^0–6h, BALB/c mice, AUC*fub): 14 nM·h | AUC (Mouse blood PK (BALB/c); female, BALB/c, mouse, in vivo, po, 5 mg/kg, po AUC^0–6h, BALB/c mice, po 5 mg/kg, 90% CI): 430 nM·h | fub [6]: 0.032 | Plasma, fup [6]: 0.042 (0.071-0.024) | blood plasma ratio at 30 min, 1 µM ([6]; female, BALB/c, mouse, plasma): 1.3

COc1cccc2c1C(=O)c1c(O)c3c(c(O)c1C2=O)C[C@@](O)(C(=O)CO)C[C@@H]3O[C@H]1C[C@H](N)[C@H](O)[C@H](C)O1 [Doxorubicin]
GI50 (CH1^WT; + verapamil 2 µM): 0.3 nM | GI50 (CH1^WT; no verapamil): 0.4 nM | GI50 (CH1^doxR; Homo sapiens, + verapamil 2 µM): 1.9 nM | GI50 (CH1^doxR; Homo sapiens, no verapamil): 310 nM | GI50 (CH1^doxR; no verapamil): 305 nM

Carboplatin
SK-OV-3 pGI50 ± SEM (n) (SK-OV-3; 96 h, CellTiter-Blue, pGI50 = −log GI50 (M)): < 4.7 | pGI50±SEM (n) (OVCAR5): < 5.0 | pGI50±SEM (n) (PA1): 5.8 | pGI50±SEM (n) (RMG-1): < 4.7 | pGI50 across the panel [15]: < 6
